From US5914336A, “Method of controlling the serum solubility of orally administered torasemide and composition relating thereto” (Boehringer Mannheim GmbH, priority 1998, dated 1999)
Values after ≈ are worked out from the molar mass of the structure shown. Values joined by “and” are separate entries in the source; they are usually repeats but may differ in a detail not shown here. Equal entries are not always repeated. “Also recorded” adds a separate entry of the source. Where two headings read alike, the source gives them in different places.

How the values were obtained:
[1] = Dissolution testing of capsules containing 150 mg torasemide in citrate buffer (pH 4.5); assay type: physicochemical; details: for % dissolved: citrate buffer pH 4.5, 500 ml, 37° C., 150 rpm, 150 mg capsule; for 8 hr solubility, %: citrate, pH 4.5, 8 hr
Description: (§1) A blend was prepared of 75 wt. % of modification III and 25 wt. % of modification I, and a similar blend was prepared of 25 wt. % of modification III and 75 wt. % of modification I. These blends were incorporated into capsules containing 150 mg of total torasemide, and pure modification I and pure modification III 150 mg. capsules were also prepared. The capsules were subjected to dissolution testing in water, and in a citrate buffer (pH 4.5), at 37° C. under stirring.

[2] = Dissolution testing of capsules containing 150 mg torasemide in water; assay type: physicochemical; details: for % dissolved: 500 ml, 37° C., 150 rpm, 150 mg capsule
Description: as §1, with “FIG. 4 is a plot similar to that of FIG. 3, but in water rather than citrate buffer; FIG. 6 is a plot similar to that of FIG. 5, but in water. In this and the following examples, microfine torasemide of modification I and microfine torasemide of modification III were blended together. A” for “A”

[3] = Solubility at 20° C. at pH 4.90; assay type: physicochemical
Description: Solubility (mmol L^-1) at 20° C. at pH 4.90

[4] = Heats of fusion, transition and solution of crystal forms; assay type: physicochemical; details: for Heat of fusion ± 95%-c.i.: heating rate 5K min^-1; for Heat of solution: in I-butanol at 20° C.
[5] = Water content after storing in relative humidity of 92% at 25° C.; assay type: physicochemical; details: 92% relative humidity, Mod. III value depending on particle size
Description: |Water content (%) after storing in relative humidity |of 92% at 25° C. on particle size

[6] = earlier patents/knowledge, storage of pure active material or in tablets, cited from earlier work
[7] = Serum concentration of torasemide after oral administration to rats; assay type: in vivo, rat; details: male rats (FIG. 1)
Source text: FIG. 1 is a plot of serum concentration levels in male rats of torasemide of modification I and modification III versus time after oral administration;
FIG. 2 is similar to FIG. 1, but reflects the serum concentrations in female rats;

[8] = Stability / rearrangement of crystal modification; assay type: physicochemical
[9] = Solubility of modification III versus modification I above pH 3; assay type: physicochemical; details: above pH 3 and especially at a pH of approximately 7.4
[10] = test system: sodium-potassium-2 chloride transport mechanism in the ascending limb of the loop of Henle; details: loop diuretic; cited from earlier work
[11] = in vivo; cited from earlier work

% dissolved ([1]; 0 minutes) [%]	% dissolved ([1]; 15 minutes)	% dissolved ([1]; 30 minutes)	% dissolved ([1]; 45 minutes)	% dissolved ([1]; 60 minutes)	% dissolved ([1]; 120 minutes)	% dissolved ([1]; 180 minutes)	% dissolved ([1]; 240 minutes)	% dissolved ([1]; 300 minutes)	% dissolved ([1]; 480 minutes)	% dissolved ([2]; 0 minutes) [%]	% dissolved ([2]; 15 minutes)	% dissolved ([2]; 30 minutes)	% dissolved ([2]; 45 minutes)	% dissolved ([2]; 60 minutes)	% dissolved ([2]; 120 minutes)	% dissolved ([2]; 180 minutes)	% dissolved ([2]; 240 minutes)	% dissolved ([2]; 300 minutes)	% dissolved ([2]; 480 minutes)	SMILES	further results
0	13,4%	30,3%	38,3%	43,5%	54,9%	61%	63,2%	63,1%	63,9%	0	30,6%	51,3%	58,5%	61,6%	64,9%	65,9%	66,3%	66,8%	67,3%	Cc1cccc(Nc2ccncc2S(=O)(=O)NC(=O)NC(C)C)c1 [Mod. I, 1-isopropyl-3-[(4-m-toluidino-3pyridyl)-sulphonyl)-urea]	8 hr solubility, % ([1]; listed as Modification I): 63.9%; 8 hr solubility, % ([2]; listed as Modification I): 67.3%; Solubility [3]: 340 µM (≈ 118 µg/mL); Heat of fusion ± 95%-c.i. [4]: 8.89 ± 0.454 kcal/mol; Heat of solution [4]: 8.63 kcal/mol; Water content after storing in relative humidity of 92% at 25° C. [5]: 0.2%; stability / rearrangement of modification ([6]; listed as modification I): stable in tablets and did not rearrange again back into modification II
0	63,3%	91%	97,4%	99,5%	101%	101,5%	101,6%	101,8%	102,5%	0	62,8%	96,6%	100,4%	101,3%	102,1%	102,5%	102,8%	102,2% and 103,2%	103,3%	Cc1cccc(Nc2ccncc2S(=O)(=O)NC(=O)NC(C)C)c1 [Mod. III, 1-isopropyl-3-[(4-m-toluidino-3pyridyl)-sulphonyl)-urea]	8 hr solubility, % ([1]; listed as Modification III): 102.5%; 8 hr solubility, % ([2]; listed as Modification III): 103.3%; Solubility [3]: 930 µM (≈ 324 µg/mL); Heat of transition ± 95%-c.i. ([4]; at about 159° C., the difference of the heats of fusion): -1.96 ± 0.502 kcal/mol; Heat of fusion ± 95%-c.i. [4]: 7.15 ± 0.22 kcal/mol; Heat of solution [4]: 7.12 kcal/mol; Water content after storing in relative humidity of 92% at 25° C. [5]: 1.2%; serum concentration relative to modification I ([7]; 20 minutes after oral administration): more than twice the serum concentration as modification I; serum concentration relative to modification I ([7]; 40 minutes after oral administration): almost twice the serum concentration as modification I; stability of modification [8]: stable; solubility versus modification I [9]: significantly greater solubility than modification I
																				Cc1cccc(Nc2ccncc2S(=O)(=O)NC(=O)NC(C)C)c1 [Modification II, 1-isopropyl-3-[(4-m-toluidino-3pyridyl)-sulphonyl)-urea]	stability / rearrangement of modification [6]: relatively unstable; also recorded: in the case of storage of the pure active material, does not change; also recorded: rearranges more or less quickly into modification I
																				Cc1cccc(Nc2ccncc2S(=O)(=O)NC(=O)NC(C)C)c1 [Torasemide, 1-isopropyl-3-[(4-m-toluidino-3pyridyl)-sulphonyl)-urea]	mechanism of action [10]: blocks the sodium-potassium-2 chloride transport mechanism in the ascending limb of the loop of Henle; diuresis compared with other standard loop diuretics [11]: less intense initial diuresis and a sustained duration of action
